The experiment has as its target T1, human MRGPRX2 (Homo sapiens, UniProt Q96LB1).
T1 construct: expressed in transfected cells
T1 sequence (Q96LB1 1-330): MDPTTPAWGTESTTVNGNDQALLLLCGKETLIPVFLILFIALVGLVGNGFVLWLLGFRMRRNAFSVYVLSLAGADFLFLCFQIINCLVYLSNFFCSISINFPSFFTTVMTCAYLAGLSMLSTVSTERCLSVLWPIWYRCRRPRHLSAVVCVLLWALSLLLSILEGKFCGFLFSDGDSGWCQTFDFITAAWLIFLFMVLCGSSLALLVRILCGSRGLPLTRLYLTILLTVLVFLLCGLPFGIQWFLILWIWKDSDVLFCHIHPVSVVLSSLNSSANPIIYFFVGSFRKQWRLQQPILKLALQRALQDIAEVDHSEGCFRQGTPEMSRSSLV
Kind of experiment: MRGPRX2 antagonist activity, IP-One HTRF assay in CHO cells expressing human MRGPRX2 versus Cortistatin-14. The format is cell-based. How it is done: CHO cells stably transfected to express human MRGPRX2 were maintained in an incubator at 37° C. with 5% CO2 and grown in F12 (HAM) media with 10% fetal bovine serum (FBS), 1% Glutamax, 1% penicillin/streptomycin, 800 μg/mL Geneticin (G418), and 300 μg/mL Hygromycin B. Cells were plated in a 384-well assay plate at 20,000 cells per well in 12 μL of Opti-MEM and kept in an incubator overnight. On the day of the assay, compounds solubilized at 10 mM in DMSO were added as a 10-point curve (30 uM final top concentration with 1:3 serial dilutions) using a Tecan D300E digital dispenser. Agonists were diluted in assay buffer (final concentrations of 5.7 mM Tris-HCl, 43 mM NaCl, 50 mM LiCI, pH=8) and 2 μL of the agonist Cortistatin-14 (CPC Scientific, catalog CORT-002) are added to each well. Final concentrations of agonists were […] Cortistatin-14. Final concentrations of DMSO were kept consistent across the plate. Plates were incubated in the dark for 1 hr at 37° C. and then for 1 hr at room temperature. IP-1 standards and HTRF detection reagents were added according to the IP-One—Gq Kit purchased from Cisbio (part number 621PAPEJ) and incubated in the dark for 1 hr at room temperature. The plate was read on a Molecular Devices SpectraMax iD5 plate reader. The HTRF ratio was calculated from the raw data and graphed using GraphPad Prism to calculate an IC50 value for each compound.
The activity ranges are denoted as follows: “+++++” denotes antagonist activity <100 nM; “++++” denotes antagonist activity between 100 and 500 nM; “+++” denotes activity between 501 and 1000 nM; “++” denotes activity between 1001 and 2500 nM; and “+” denotes activity >2500 nM.

[1] abbreviates: CHO cells stably expressing human MRGPRX2, versus 0.3 uM Cortistatin-14 agonist, IP-1 HTRF readout, read-out: MRGPR2 Antagonist Activity.

Results on 22 compounds are retold here after US11952346B2, “Modulators of mas-related G-protein receptor X2 and related products and methods” (Escient Pharmaceuticals, Inc., priority 2020, dated 2024).

SMILES strings stand for the structures. Like-named read-outs stand apart in the source and are kept apart here.

`N#Cc1ccc(N[C@H]2CC[C@@H](NC(=O)c3c[nH]c4ccccc34)CC2)cc1C(F)(F)F` [1-19]: the IC50 was under 100 nM.
As to `N#Cc1cccc(C(=O)N[C@H]2CC[C@@H](Nc3cc(C(F)(F)F)nc(C(F)(F)F)c3)CC2)c1` [1-4], the IC50 under setting [1] is 1000 to 2500 nM.
On to `Cc1cc(N[C@H]2CC[C@@H](NC(=O)c3ccc(N(C)CC(F)F)cc3)CC2)cc(C(F)(F)F)c1C#N` [5-7], for which the IC50 under setting [1] was under 100 nM.
`O=C(N[C@H]1CC[C@@H](Nc2cc(C(F)(F)F)nc(C(F)(F)F)c2)CC1)c1ccccc1` [example 3, N-((1S,4S)-4-((2,6-bis(trifluoromethyl)pyridin-4-yl)amino)cyclohexyl)benzamide]: the IC50 under setting [1] was 501 to 1000 nM.
`N#Cc1ccc(N[C@H]2CC[C@@H](NC(=O)c3c[nH]c4ncccc34)CC2)cc1C(F)(F)F` [4-57]: the IC50 under setting [1] was under 100 nM.
On the same count and under the same terms, the figure for `O=C(N[C@H]1CC[C@@H](Nc2cc(C(F)(F)F)nc(C(F)(F)F)c2)CC1)c1nc2ccccc2[nH]1` [4-35] is 1000 to 2500 nM.
`CCn1nccc1C(=O)N[C@H]1CC[C@@H](Nc2cc(C)c(C#N)c(C(F)(F)F)c2)CC1` [5-6]: the IC50 under setting [1] was under 100 nM.
As for `CCN(C)c1nc(N[C@H]2CC[C@@H](NC(=O)c3ccc(N(C)C)cc3)CC2)cc(C(F)(F)F)n1` [Example 11, 4-(dimethylamino)-N-(1S,4S)-[4-[[2-[ethyl(methyl)amino]-6-(trifluoromethyl)pyrimidin-4-yl]amino]cyclohexyl] benzamide], the IC50 under setting [1] was in the range of 100 to 500 nM.
The same measure, in the same setting: for `CN(C)c1ccc(C(=O)N[C@H]2CC[C@@H](Nc3cc(C(F)(F)F)nc(N(C)C)n3)CC2)cc1` [4-17] the value was 501 to 1000 nM.
As to `CN1CCCc2cc(C(=O)N[C@H]3CC[C@@H](Nc4cc(C(F)(F)F)nc(C(F)(F)F)c4)CC3)ccc21` [4-21], under setting [1], the IC50 lay in the range of 501 to 1000 nM.
Still for that read-out and setting: for `CN(c1ccc(C(=O)N[C@H]2CC[C@@H](Nc3cc(C(F)(F)F)nc(C(F)(F)F)c3)CC2)cc1)S(C)(=O)=O` [4-23] the value was 100 to 500 nM; for `N#Cc1ccc(N[C@H]2CC[C@@H](NC(=O)c3c[nH]c4ccncc34)CC2)cc1C(F)(F)F` [4-63], under 100 nM; for `O=C(N[C@H]1CC[C@@H](Nc2cc(C(F)(F)F)nc(C(F)(F)F)c2)CC1)c1ccc(-n2cccn2)cc1` [4-31], 100 to 500 nM.
With `CNc1ccc(C(=O)N[C@H]2CC[C@@H](Nc3cc(C(F)(F)F)nc(C(F)(F)F)c3)CC2)cc1` [4-4], under setting [1], the IC50 was in the range of 100 to 500 nM.
On to `O=C1Nc2c(C(=O)N[C@H]3CC[C@@H](Nc4cc(C(F)(F)F)nc(C(F)(F)F)c4)CC3)cccc2C1=O` [4-7], for which the IC50 under setting [1] was 1000 to 2500 nM.
For `COc1ccc(C(=O)N[C@@H]2CCC[C@H](Nc3nc(C(F)(F)F)nc4c3CCC4)C2)cc1` [1-6], the IC50 under setting [1] was in the range of 1000 to 2500 nM.
On to `CN1CCN(C(=O)N[C@H]2CC[C@@H](Nc3cc(C(F)(F)F)nc(C(F)(F)F)c3)CC2)CC1` [4-36], for which the IC50 under setting [1] lay within 1000 to 2500 nM.
Take `CNc1ccc(C(=O)N[C@H]2CC[C@@H](Nc3cc(C)c(C#N)c(C(F)(F)F)c3)CC2)cc1` [5-3]: the IC50 under setting [1] is under 100 nM.
As for `O=C(N[C@H]1CC[C@@H](Nc2cc(C(F)(F)F)nc(C(F)(F)F)c2)CC1)c1ccc(Cl)cc1Cl` [4-32], under setting [1], the IC50 was in the range of 501 to 1000 nM.
Consider `CC(C)C(=O)Nc1cccc(C(=O)N[C@H]2CC[C@@H](Nc3cc(C(F)(F)F)nc(C(F)(F)F)c3)CC2)c1` [4-16], for which the IC50 under setting [1] was 501 to 1000 nM.
The same measure, in the same setting: for `CNc1cc(C(=O)N[C@H]2CC[C@@H](Nc3cc(C)c(C#N)c(C(F)(F)F)c3)CC2)ccn1` [5-4] the value was under 100 nM.
As to `CC1=NN(c2ccc(C(=O)N[C@H]3CC[C@@H](Nc4cc(C(F)(F)F)nc(C(F)(F)F)c4)CC3)cc2)C(=O)C1` [4-33], the IC50 under setting [1] lay in the range of 100 to 500 nM.
